Experimental data from US7335723B2, “Melanin-concentrating hormone antagonists” (priority 2001, dated 2008).
Where a SMILES comes first, the peptide text is derived from it. Bridges are numbered along the chain shown (N, C = ends). [ ]: non-standard residue; d: D form. The star is where a group is joined. Pentanoyl(5-guanidino) = NC(N)=NCCCCC(=O)*; Abu = CC[C@H](N)C(=O)O; Ava = NCCCCC(=O)O

What was measured:
[1] = target: rat MCH-1R (Rattus norvegicus, UniProt P97639); assay: Aequorin bioluminescence functional assay, MCH-1R agonist activity; conditions: for MCH-1R Agonist Activation %: 293-AEQ17 cells expressing rat MCH-1R
[2] = target: human MCH-1R (Homo sapiens, UniProt Q99705); assay: MCH-1R binding assay, inhibition of [125I]-human MCH binding to membranes
Description: Cell membranes were prepared on ice. Each T-75 flask was rinsed twice with 10 ml of Enzyme-free Cell Dissociation Buffer (Specialty Media, Lavallette, N.J.), and the cell monolayer was detached in an additional 10 ml of Enzyme-free Cell Dissociation Buffer by incubation at room temperature for 10 minutes. Dissociated cells were centrifuged (500×g for 10 minutes at 4° C.), resuspended in 5 ml homogenization buffer (10 mM Tris-HCl, pH 7.4, 0.01 mM Pefabloc, 10 μM phosphoramidon, 40 μg/ml bacitracin) and then homogenized using a glass homogenizer (10-15 strokes). The homogenate was centrifuged for 10 minutes (1,000×g at 4° C.). The resulting supernatant was then centrifuged at 38,700×g for 15 minutes at 4° C. Pelleted membranes were resuspended (passed through 25 gauge needle 5 times), snap-frozen on liquid nitrogen, and stored at −80° C. until use.
Bound radioligand was separated by rapid vacuum filtration (Packard Filtermate 96-well cell harvester) through GF/C filters pretreated for 1 hour with 1% polyethylenimine. After application of the membrane suspension to the filter, the filters were washed 3 times with 3 ml each of ice-cold 50 mM Tris-HCl, pH 7.4, 10 mM MgCl2, 2 mM EDTA, 0.04% Tween 20 and the bound radioactivity on the filters was quantitated by scintillation counting (TopCount device).
For the SPA-based assay, WGA-PVT beads (NEN Life Sciences Products) were resuspended in Dulbecco's PBS with calcium and magnesium (500 mg beads in 4 ml PBS). […] The suspension was mixed gently for 20 minutes, 12.3 ml of assay buffer and protease inhibitors were added (final concentration given): 2 μg/ml leupeptin, 10 μM phosphoramidon, 40 μg/ml bacitracin, 5 μg/ml aprotinin, 0.1 mM Pefabloc.
Coated beads were kept on ice until use.

[3] = target: human MCH-2R (Homo sapiens, UniProt Q969V1); assay: Aequorin bioluminescence functional assay, MCH-2R agonist activity; conditions: for MCH-2R Agonist Activation %: 293-AEQ17 cells expressing human MCH-2R
Sequence of human MCH-2R (Q969V1 whole entry): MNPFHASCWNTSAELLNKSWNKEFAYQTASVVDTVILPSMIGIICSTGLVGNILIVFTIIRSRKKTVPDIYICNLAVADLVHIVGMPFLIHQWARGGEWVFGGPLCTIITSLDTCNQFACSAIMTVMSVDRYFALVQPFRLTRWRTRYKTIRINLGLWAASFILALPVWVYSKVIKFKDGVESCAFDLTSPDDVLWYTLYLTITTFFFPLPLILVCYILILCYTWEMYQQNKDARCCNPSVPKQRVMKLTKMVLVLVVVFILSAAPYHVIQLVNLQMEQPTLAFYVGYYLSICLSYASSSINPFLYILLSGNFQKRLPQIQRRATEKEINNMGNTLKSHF

Sequence of human MCH-1R (Q99705 whole entry): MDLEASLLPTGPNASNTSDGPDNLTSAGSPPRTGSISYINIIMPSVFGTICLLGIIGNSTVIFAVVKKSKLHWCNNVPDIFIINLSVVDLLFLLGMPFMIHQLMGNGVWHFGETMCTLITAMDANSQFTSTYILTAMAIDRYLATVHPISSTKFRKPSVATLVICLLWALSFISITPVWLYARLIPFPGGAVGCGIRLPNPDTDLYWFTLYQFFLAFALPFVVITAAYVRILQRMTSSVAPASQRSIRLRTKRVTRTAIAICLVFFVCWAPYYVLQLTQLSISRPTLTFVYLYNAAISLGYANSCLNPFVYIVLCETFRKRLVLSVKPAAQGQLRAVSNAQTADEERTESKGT
Sequence of rat MCH-1R (P97639 whole entry): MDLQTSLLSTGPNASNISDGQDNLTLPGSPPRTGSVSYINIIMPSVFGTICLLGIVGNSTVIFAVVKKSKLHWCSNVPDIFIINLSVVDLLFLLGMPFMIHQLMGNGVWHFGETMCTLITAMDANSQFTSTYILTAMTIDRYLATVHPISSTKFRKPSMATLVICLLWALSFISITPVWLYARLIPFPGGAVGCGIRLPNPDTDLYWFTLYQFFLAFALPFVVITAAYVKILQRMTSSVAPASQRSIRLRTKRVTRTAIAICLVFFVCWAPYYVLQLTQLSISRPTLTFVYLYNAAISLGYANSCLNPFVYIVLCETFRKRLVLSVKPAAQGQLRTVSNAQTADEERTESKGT

| Structure (SMILES) | EC50 [1] [µM] | MCH-1R Agonist Activation % [1] [%] | IC50 [2] [µM] | EC50 [3] [µM] | MCH-2R Agonist Activation % [3] [%] |
| --- | --- | --- | --- | --- | --- |
| CSCC[C@@H]1NC(=O)[C@@H](NC(=O)[C@H](CCCNC(=N)N)NC(C)=O)CSSC[C@@H](C(N)=O)NC(=O)[C@@H]2CCCN2C(=O)[C@H](CCCNC(=N)N)NC(=O)[C@H](Cc2ccc(O)cc2)NC(=O)[C@H](C(C)C)NC(=O)[C@H](CCCNC(=N)N)NC(=O)CNC(=O)[C@H](CC(C)C)NC1=O [SEQ. ID. NO. 2] | 0.02 | 99 | – | – | – |
| CSCC[C@@H]1NC(=O)[C@@H](NC(=O)[C@@H](CCCNC(=N)N)NC(C)=O)CSSC[C@@H](C(N)=O)NC(=O)[C@@H]2CCCN2C(=O)[C@H](CCCNC(=N)N)NC(=O)[C@H](Cc2ccc(O)cc2)NC(=O)[C@H](C(C)C)NC(=O)[C@H](CCCNC(=N)N)NC(=O)CCCCNC(=O)CCCCNC1=O [SEQ. ID. NO. 4] (Ac-[dR]CM[Ava][Ava]RVYRPC-NH2; disulfide 2-11 (inferred); C-terminus assumed) | 1.08 | 72 | 0.0037 | > 10 | 7 |
| CSCC[C@@H]1NC(=O)[C@@H](NC(=O)CCCCNC(=N)N)CSSC[C@@H](C(N)=O)NC(=O)[C@@H]2CCCN2C(=O)[C@H](CCCNC(=N)N)NC(=O)[C@H](Cc2ccc(O)cc2)NC(=O)[C@H](C(C)C)NC(=O)[C@H](CCCNC(=N)N)NC(=O)CCCCNC(=O)CCCCNC1=O [SEQ. ID. NO. 5] ({Pentanoyl(5-guanidino)}-CM[Ava][Ava]RVYRPC-NH2; disulfide 1-10 (inferred); C-terminus assumed) | 0.38 | 10 | 0.0063 | > 10 | 31 |
| CSCC[C@@H]1NC(=O)[C@@H](NC(=O)CCCCNC(=N)N)CSSC[C@@H](C(N)=O)NC(=O)CNC(=O)[C@H](Cc2ccc(O)cc2)NC(=O)[C@H](C(C)C)NC(=O)[C@H](CCCNC(=N)N)NC(=O)CCCCNC(=O)CCCCNC1=O [SEQ. ID. NO. 6] ({Pentanoyl(5-guanidino)}-CM[Ava][Ava]RVYGC-NH2; disulfide 1-9) | > 10 | 0.1 | > 1 | > 10 | 25 |
| CSCC[C@@H]1NC(=O)[C@@H](NC(=O)[C@H](CCCNC(=N)N)NC(C)=O)CSSC[C@@H](C(N)=O)NC(=O)CCCCNC(=O)CCCCNC(=O)[C@H](Cc2ccc(O)cc2)NC(=O)[C@H](C(C)C)NC(=O)[C@H](CCCNC(=N)N)NC(=O)CNC(=O)[C@H](CC(C)C)NC1=O [SEQ. ID. NO. 8] (Ac-RCMLGRVY[Ava][Ava]C-NH2; disulfide 2-11; C-terminus assumed) | 0.406 | 75 | 0.0066 | > 10 | – |
| CSCC[C@@H]1NC(=O)[C@@H](NC(=O)[C@@H](CCCNC(=N)N)NC(C)=O)CSSC[C@@H](C(N)=O)NC(=O)CCCCNC(=O)CCCCNC(=O)[C@H](Cc2ccc(O)cc2)NC(=O)[C@H](C(C)C)NC(=O)[C@H](CCCNC(=N)N)NC(=O)CNC(=O)[C@H](CC(C)C)NC1=O [SEQ. ID. NO. 10] (Ac-[dR]CMLGRVY[Ava][Ava]C-NH2; disulfide 2-11 (inferred); C-terminus assumed) | 1.3 | 28 | 0.0195 | > 10 | 18 |
| CC[C@@H]1NC(=O)[C@@H](NC(=O)CCCCNC(=N)N)CSSC[C@@H](C(N)=O)NC(=O)CCCCNC(=O)CCCCNC(=O)[C@H](Cc2ccc(O)cc2)NC(=O)[C@H](C(C)C)NC(=O)[C@H](CCCNC(=N)N)NC(=O)CNC(=O)[C@H](CC(C)C)NC1=O [SEQ. ID. NO. 17] ({Pentanoyl(5-guanidino)}-C[Abu]LGRVY[Ava][Ava]C-NH2; disulfide 1-10; C-terminus assumed) | > 10 | 3 | 0.83 | > 10 | 7 |
| CC(=O)N[C@@H](CCCNC(=N)N)C(=O)N[C@H]1CSSC[C@@H](C(N)=O)NC(=O)CCCCNC(=O)CCCCNC(=O)[C@H](Cc2ccc(O)cc2)NC(=O)[C@H](C(C)C)NC(=O)[C@H](CCCNC(=N)N)NC(=O)CNC(=O)[C@H](CC(C)C)NC(=O)[C@H](C)NC1=O [SEQ. ID. NO. 22] (Ac-RCALGRVY[Ava][Ava]C-NH2; disulfide 2-11; C-terminus assumed) | > 10 | 0.1 | > 1 | 1.83 | 25 |
| CSCC[C@@H]1NC(=O)[C@@H](NC(=O)CCCCNC(=N)N)CSSC[C@@H](C(N)=O)NC(=O)CCCCNC(=O)CCCCNC(=O)[C@H](Cc2ccc(O)cc2)NC(=O)[C@H](C(C)C)NC(=O)[C@H](CCCNC(=N)N)NC(=O)CNC1=O [SEQ. ID. NO. 23] ({Pentanoyl(5-guanidino)}-CMGRVY[Ava][Ava]C-NH2; disulfide 1-9) | > 10 | 0.1 | > 1 | > 10 | 26 |
| CSCC[C@@H]1NC(=O)[C@H](NC(=O)[C@H](CCCNC(=N)N)NC(C)=O)CSSC[C@@H](C(N)=O)NC(=O)CCCCNC(=O)CCCCNC(=O)[C@H](Cc2ccc(O)cc2)NC(=O)[C@H](C(C)C)NC(=O)[C@H](CCCNC(=N)N)NC(=O)CNC(=O)[C@H](CC(C)C)NC1=O [SEQ. ID. NO. 24] (Ac-R[dC]MLGRVY[Ava][Ava]C-NH2; disulfide 2-11; C-terminus assumed) | > 10 | 3 | 0.35 | > 10 | 17 |
| CSCC[C@@H]1NC(=O)[C@H](NC(=O)CCCCNC(=N)N)CSSC[C@@H](C(N)=O)NC(=O)CCCCNC(=O)CCCCNC(=O)[C@H](Cc2ccc(O)cc2)NC(=O)[C@H](C(C)C)NC(=O)[C@H](CCCNC(=N)N)NC(=O)CNC(=O)[C@H](CC(C)C)NC1=O [SEQ. ID. NO. 25] | > 10 | 0.1 | 0.066 | > 10 | 25 |
| CSCC[C@@H]1NC(=O)[C@@H](NC(=O)[C@H](CCCNC(=N)N)NC(C)=O)CSSC[C@@H](C(N)=O)NC(=O)CCCCNC(=O)CCCCNC(=O)[C@H](Cc2ccc(O)cc2)NC(=O)[C@H](C(C)C)NC(=O)[C@H](CCCNC(=N)N)NC(=O)[C@H]2CCCN2C(=O)[C@H](CC(C)C)NC1=O [SEQ. ID. NO. 28] (Ac-RCML[dP]RVY[Ava][Ava]C-NH2; disulfide 2-11 (inferred); C-terminus assumed) | – | – | 0.7 | > 10 | 7 |
| CSCC[C@@H]1NC(=O)[C@@H](NC(=O)[C@H](CCCNC(=N)N)NC(=O)[C@H](CC(C)C)NC(=O)[C@H](CCSC)NC(=O)[C@H](CC(=O)O)NC(=O)[C@H](Cc2ccccc2)NC(=O)[C@@H](N)CC(=O)O)CSSC[C@@H](C(=O)N[C@@H](Cc2c[nH]c3ccccc23)C(=O)N[C@@H](CCC(N)=O)C(=O)N[C@H](C(=O)O)C(C)C)NC(=O)[C@@H]2CCCN2C(=O)[C@H](CCCNC(=N)N)NC(=O)[C@H](Cc2ccc(O)cc2)NC(=O)[C@H](C(C)C)NC(=O)[C@H](CCCNC(=N)N)NC(=O)CNC(=O)[C@H](CC(C)C)NC1=O [hMCH, reference compound] | 0.0309 | 100 | – | – | 100 |
